We go through two compounds from US7094803B2, “Biologically active raspailamide compounds” (Harbor Branch Oceanographic Institution, Inc., priority 2003, dated 2006).

Structures are written as SMILES.

This experiment has as its system A549 human lung adenocarcinoma. Kind of experiment: Antiproliferative MTT assay, A549 human lung adenocarcinoma cell line. To be noted: A549 adherent cells, 72-h exposure, cytotoxicity. The format is cell-based. The method, then:
Raspailamide A (I) and B (II) were analyzed as to their effect on the proliferation of A549 human lung adenocarcinoma and P388 murine leukemia cell lines. P388 cells were obtained from Dr. R. Camalier, National Cancer Institute, Bethesda, Md., and A549 cells were obtained from American Type Culture Collection, Rockville, Md.
All cell lines are maintained in Roswell Park Memorial Institute (RPMI) medium 1640 supplemented with 100 U/mL penicillin 100 μg/ml streptomycin, 60 μg/ml L-glutamine, 18 mM HEPES, 0.05 mg/mL gentamycin and 10% fetal bovine serum. Cell lines are cultured in plastic tissue culture flasks and kept in an incubator at 37° C. in humidified air containing 5% CO2. […]
A volume of 75 μl of warm growth media containing 5 mg/ml MTT is added to each well, cultures returned to the incubator, and left undisturbed for 3 hours. To spectrophotometrically quantitate formation of reduced formazan, plates are centrifuged (900×g, 5 minutes), culture fluids removed by aspiration, and 200 μl of acidified isopropanol (2 ml concentrated HCl/iter isopropanol) added per well. The absorbance of the resulting solutions is measured at 570 nm with a plate reader (Spectra II (Tecan Laboratories). […]
The two standard drug controls (indicated above) are included in each assay to monitor the drug sensitivity of each of the cell lines and IC50 values are determined for each drug-cell combination.

In the case of `C=C/C=C/C(C)=C/C(C)C1CC(OC)CC(CC2OC(CC(C)/C=C/C(C)=C/CC(CC(O)CNC(=O)C(=C)OC)OC(N)=O)C(C)(O)CC2C)O1` (centres unmarked) [Raspailamide (II), Raspailamide B], the IC50 is 0.018 ng/mL.
Consider `C=C(OC)C(=O)NCC(O)CC(C/C=C(C)/C=C/C(C)CC1OC(CC2CC(OC)CC(C(C)/C=C(C)/C=C/C=C/C)O2)C(C)CC1(C)O)OC(N)=O` (centres unmarked) [Raspailamide A (I), Raspailamide A], for which the IC50 was determined as 0.046 ng/mL.
